Test results as given in patent publication US12083115B2, “Methods for treating neurological symptoms associated with lysosomal storage diseases” (Genzyme Corporation, priority 2020, dated 2024).

What was measured:
[1] = tested on: GM3 expression in B16 mouse melanoma cells; experiment: GM3 fluorescent-linked immunosorbent assay (FLISA), B16; format: cell-based; settings: 48 hours
From the text: Inhibition of glucosylceramide synthase activity can be measured with one or more assays. A first assay is a microsomal assay that directly measures the conversion of ceramide to glucosylceramide by HPLC. Microsomes are a source of glucosylceramide synthase activity in the microsomal assay. A second assay is a cell based, phenotypic assay that monitors cell surface expression of the downstream lipid GM3 by antibody mediated immunofluorescence. Specific protocols are provided below.
This is a phenotypic assay that measures GM3 expression in B16 mouse melanoma or C32 human melanoma cells following treatment with test compounds. Cell surface GM3 expression is determined by antibody mediated fluorescence.
Compounds are diluted in media and plated in 384 well plates in DMSO. B16 and C32 cells are assayed at densities of 20,000 cells/ml and 62,500 cells/ml, respectively, per well. Each titration curve contains 10 points that are assayed in duplicate on each test run. The plates are incubated for 48 hours at 37° C., 5% CO2, and are then washed once with TBS. Anti-GM3 antibody is added to each well and the plates are then incubated for an additional one hour at room temperature. Plates are subsequently washed twice and incubated for an additional hour with the labeled secondary antibody. Following the final incubation, the plates are washed twice and the fluorescence at λex=D640/20 nm and λem=657 nm is detected on a fluorescent reader.
The results of the microsomal assays are expressed as “GCS IC50,” which represents the concentration of the compound causing 50% inhibition of glucosylceramide synthase activity. The results of the cell-based assays are expressed as “GM3 B16 IC50” or “GM3 C32 IC50” for the B16 assay and the C32 assay, respectively. These values represent the concentration of the compound causing 50% inhibition of GM3 expression on the cell surface.

[2] = tested on: adult patients with Gaucher disease Type 3; experiment: Clinical study in GD-3 patients: trail making test (TMT), Trail B minus Trail A time; format: in vivo, human; settings: for TMT-A (s)-TMT-B (s), Average: screening 126 (n = 6)
Protocol: (§1) During the study patients were evaluated for safety and tolerability, CSF and plasma biomarkers (glucosylceramide, GL-1; glucosylsphingosine, lyso-GL1), pharmacokinetics, markers for systemic disease (spleen and liver volume measured by magnetic resonance imaging (MRI), platelet count, hemoglobin levels), indicia of interstitial lung disease (high resolution pulmonary computed tomography (CT)), and horizontal saccadic eye movement. In addition, exploratory biomarkers were quantified in CSF of GD3 patients: ceramide (the precursor of GL-1), chitotriosidase (CHITO), GM3, and GPNMB. Symptoms of ataxia were measured using the SARA scale, neurological symptoms were measured using the trail making test, and functional MRI was used to assess neural connectivity in the brain.
The trail making test (TMT) was used to evaluate cognitive function in the patients. The TMT is one of the most widely used neuropsychological tests and is included in most test batteries. The TMT is a diagnostic tool to assess general intelligence and cognitive dysfunctions (Tombaugh et al. [2004]; Cavaco et al. [2013]). In part A of the TMT (TMT-A), subjects are asked to connect a cluster of numbers in ascending order (Trail A). This task is a combination of visual search and general visual and motor processing speed. Part B (TMT-B) presents a sequence which alternates between numbers and letters (Trail B). Subjects must actively switch between both categories when connecting them in ascending, but alternating order.
TMT-A evaluates mainly perceptual and psychomotor speed. TMT-B assesses more specifically mental flexibility and shifting abilities. TMT-B minus TMT-A score is used to remove the variance attributable to the graphomotor and visual scanning components of TMT-A. This derived score reflects the unique task requirements of TMT-B.

[3] = tested on: ceramide, chitotriosidase (CHITO), GM3, GPNMB in CSF; experiment: Clinical study in GD-3 patients: exploratory CSF biomarkers; format: in vivo, human
Protocol: as §1
In addition, exploratory biomarkers were quantified in CSF of GD3 patients: ceramide (the precursor of GL-1), chitotriosidase (CHITO; an enzyme known to be elevated in GD patients), GM3 (a glycosphingolipid marker known to be elevated in GD patients), and GPNMB (glycoprotein nonmetastatic melanoma protein B, reportedly a biomarker of neuropathic GD3).

[4] = tested on: plasma GL-1 (glucosylceramide); experiment: Study 2: plasma GL-1 pharmacodynamics; format: in vivo, human
Protocol: The study enrolled and randomized 36 healthy adults (19 men and 17 women) (n=9 each to group).
Pharmacodynamic endpoints (plasma GL-1, GL-3, and GM3 concentrations) were assessed on Days 1-5, 8, 11, 13, and 14, at 0 hours […]; and on Day 15, at 24 hours after the Day 14 dose.

CC(C)(NC(=O)O[C@@H]1CN2CCC1CC2)c1csc(-c2ccc(F)cc2)n1 [Compound 2, (S)-quinuclidin-3-yl 2-(2-(4-fluorophenyl)thiazol-4-yl)propan-2-ylcarbamate]
IC50 [1]: 107 µM
patients with positive correlation between reduction of CSF GL-1 and TMT time ([2]; 52 weeks, 11 patients): 6 of 11
Trail B minus Trail A time ([2]; Patient 1, Week 26, screening 13, 15 mg/day + imiglucerase): 21 s
Trail B minus Trail A time ([2]; Patient 1, Week 52, screening 13, 15 mg/day + imiglucerase): 16 s
TMT-A (s)-TMT-B (s), Change (%) from Baseline to Week 52 ([2]; Patient 1, 15 mg/day + imiglucerase): +23%
Trail B minus Trail A time ([2]; Patient 2, Week 26, screening 71, 15 mg/day + imiglucerase): 37 s
Trail B minus Trail A time ([2]; Patient 2, Week 52, screening 71, 15 mg/day + imiglucerase): 57 s
TMT-A (s)-TMT-B (s), Change (%) from Baseline to Week 52 ([2]; Patient 2, 15 mg/day + imiglucerase): −20%
Trail B minus Trail A time ([2]; Patient 3, Week 26, screening 72, 15 mg/day + imiglucerase): 56 s
Trail B minus Trail A time ([2]; Patient 3, Week 52, screening 72, 15 mg/day + imiglucerase): 20 s
TMT-A (s)-TMT-B (s), Change (%) from Baseline to Week 52 ([2]; Patient 3, 15 mg/day + imiglucerase): −72%
Trail B minus Trail A time ([2]; Patient 4, Week 52, screening 116, 15 mg/day + imiglucerase): 66 s
TMT-A (s)-TMT-B (s), Change (%) from Baseline to Week 52 ([2]; Patient 4, 15 mg/day + imiglucerase): −43%
TMT-A (s)-TMT-B (s), Change (%) from Baseline to Week 52 ([2]; Patient 5 (low Compound 2 exposure)): −3%
Trail B minus Trail A time ([2]; Patient 5 (low Compound 2 exposure), Week 26, screening 74): 60 s
Trail B minus Trail A time ([2]; Patient 5 (low Compound 2 exposure), Week 52, screening 74): 72 s
Trail B minus Trail A time ([2]; Patient 6, Week 26, screening 410, 15 mg/day + imiglucerase): 440 s
Trail B minus Trail A time ([2]; Patient 6, Week 52, screening 410, 15 mg/day + imiglucerase): 166 s
TMT-A (s)-TMT-B (s), Change (%) from Baseline to Week 52 ([2]; Patient 6, 15 mg/day + imiglucerase): −60%
Trail B minus Trail A time ([2]; Patient 7, Week 26, screening 86, 15 mg/day + imiglucerase): 83 s
Trail B minus Trail A time ([2]; Patient 7, Week 52, screening 86, 15 mg/day + imiglucerase): 110 s
TMT-A (s)-TMT-B (s), Change (%) from Baseline to Week 52 ([2]; Patient 7, 15 mg/day + imiglucerase): +28%
Trail B minus Trail A time ([2]; Patient 8, Week 26, screening 100, 15 mg/day + imiglucerase): 54 s
Trail B minus Trail A time ([2]; Patient 8, Week 52, screening 100, 15 mg/day + imiglucerase): 59 s
TMT-A (s)-TMT-B (s), Change (%) from Baseline to Week 52 ([2]; Patient 8, 15 mg/day + imiglucerase): −41%
Trail B minus Trail A time ([2]; Patient 9, Week 52, screening 59, 15 mg/day + imiglucerase): 75 s
TMT-A (s)-TMT-B (s), Change (%) from Baseline to Week 52 ([2]; Patient 9, 15 mg/day + imiglucerase): +27%
Trail B minus Trail A time ([2]; Patient 10, Week 26, screening 73, 15 mg/day + imiglucerase): 33 s
Trail B minus Trail A time ([2]; Patient 10, Week 52, screening 73, 15 mg/day + imiglucerase): 6 s
TMT-A (s)-TMT-B (s), Change (%) from Baseline to Week 52 ([2]; Patient 10, 15 mg/day + imiglucerase): −92%
Trail B minus Trail A time ([2]; Patient 11, Week 26, screening 18, 15 mg/day + imiglucerase): 48 s
Trail B minus Trail A time ([2]; Patient 11, Week 52, screening 18, 15 mg/day + imiglucerase): 32 s
TMT-A (s)-TMT-B (s), Change (%) from Baseline to Week 52 ([2]; Patient 11, 15 mg/day + imiglucerase): +78%
TMT-A (s)-TMT-B (s), Average Change (%) from Baseline to Week 52 ([2]; Patients 1-6): −29%
TMT-A (s)-TMT-B (s), Average ([2]; Week 26, n = 5): 123 (n = 5) s
patients exhibiting a TMT-A reduction ([2]; Week 52, Excluding Patient 5): four of five
patients exhibiting a TMT-B reduction ([2]; Week 52, Excluding Patient 5): five of five
patients exhibiting an improvement in Trail B minus Trial A ([2]; Week 52, Excluding Patient 5): four of five
mean improvement in Trail B minus Trial A ([2]; Week 52, Excluding Patient 5 (SD 37.6%)): −31.6%
mean improvement in Trail B minus Trial A ([2]; Week 52, Excluding Patient 5 (SD 99.3 s)): -71.4 s
patients exhibiting a reduction in the (TMT-B−TMT-A) time ([2]; Week 52, N = 6): 5 of 6
patients with reduction in time taken to complete Trail A ([2]; Week 52, N = 6): Four of six
patients with reduction in time taken to complete Trail B ([2]; Week 52, N = 6): six of six
mean time taken to complete Trail A ([2]; Week 52, N = 6 (SD=55.2 s), baseline 67.8 s): 56.5 s
mean time taken to complete Trail B ([2]; Week 52, N = 6 (SD=91.8 s), baseline 193.8 s): 122.7 s
TMT-A (s)-TMT-B (s), Average ([2]; Week 52, n = 6): 66 (n = 6) s
drop in the (TMT-B−TMT-A) time ([2]; one of the new patients, 52 weeks): 92%
CSF concentrations of ceramide, CHITO, or GPNMB ([3]; After 52 weeks of treatment, N = 6): no significant changes
GM3 in CSF ([3]; four patients with measurable GM3 at baseline, at 4 weeks, 26 weeks, and 52 weeks): undetectable
Mean estimated plasma GL-1 reduction from baseline attributable to Compound 2 Ctrough ([4]; 5 mg dose group, Ctrough 19.0 ng/mL, 90% CI 54.4-79.7%): 67.0%
Mean estimated plasma GL-1 reduction from baseline attributable to Compound 2 Ctrough ([4]; 10 mg dose group, Ctrough 47.5 ng/mL, 90% CI 63.7-85.2%): 74.4%
Mean estimated plasma GL-1 reduction from baseline attributable to Compound 2 Ctrough ([4]; 20 mg dose group, Ctrough 69.9 ng/mL, 90% CI 64.8-87.8%): 76.3%
day of maximal sustained effects on GL-1 ([4]; 5- and 10-mg groups): 11 days
day of maximal sustained effects on GL-1 ([4]; 20-mg group): ≤ 8 days
Mean calculated GL-1 reduction from baseline ([4]; Day 15, 5-mg group): 41.9%
subjects with GL-1 values below LLOQ ([4]; Day 15, 5-mg group (n=9)): 3 subjects
Mean calculated GL-1 reduction from baseline ([4]; Day 15, 10-mg group): 69.6%
subjects with GL-1 values below LLOQ ([4]; Day 15, 10-mg group (n=9)): 5 subjects
Mean calculated GL-1 reduction from baseline ([4]; Day 15, 20-mg group): 74.6%
subjects with GL-1 values below LLOQ ([4]; Day 15, 20-mg group (n=9)): 9 subjects
